This passage reports IC50 and inhibition results from patent US5468771A, “Cholesterol lowering compound” (Merck & Co., Inc., priority 1994, dated 1995).

The target in the assay is T1, squalene synthetase (Homo sapiens, UniProt P37268).
T1 construct: The HepG2 enzyme preparation was centrifuged at 34,000 rpm to separate the cytosol and microsomal enzymes; host or cells: HepG2 (human hepatoblastoma), resuspended 34,000 rpm pellet of sonicated cells
T1 sequence (P37268 1-417): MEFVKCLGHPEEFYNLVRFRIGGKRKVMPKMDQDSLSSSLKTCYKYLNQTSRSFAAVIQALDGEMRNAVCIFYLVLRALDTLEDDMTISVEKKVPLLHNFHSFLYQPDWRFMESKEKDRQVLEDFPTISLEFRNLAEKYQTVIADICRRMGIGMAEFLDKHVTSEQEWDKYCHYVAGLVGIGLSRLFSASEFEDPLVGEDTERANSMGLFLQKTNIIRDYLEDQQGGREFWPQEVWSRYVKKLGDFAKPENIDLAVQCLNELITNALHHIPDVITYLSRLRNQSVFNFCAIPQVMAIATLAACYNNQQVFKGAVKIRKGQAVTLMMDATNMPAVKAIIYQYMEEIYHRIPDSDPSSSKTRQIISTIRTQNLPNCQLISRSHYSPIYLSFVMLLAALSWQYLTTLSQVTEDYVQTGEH
In words: Squalene synthetase assay (in vitro, human HepG2 cell enzyme, 3H-farnesyl pyrophosphate substrate). It is filed as biochemical. Particulars: 30° C., 20 minutes. On the procedure: The intrinsic squalene synthetase inhibitory activity of the compound of this invention was measured by the ill vitro protocol described below:
PREPARATION OF HUMAN HepG2 cell ENZYME
1. SOURCE: HEPG2 CELL LINE(Liver, hepatoblastoma, Human) ATCC No. HB 8065
2. CELL GROWTH AND MAINTENANCE
Culture Medium: Minimum essential medium (MEM) with non-essential amino acids, sodium pyruvate, and 10% fetal bovine serum. The medium was changed twice weekly. […] The growth medium is prepared as listed below. […]
Subculture Procedure: Remove medium, wash with PBS, add fresh trypsin (0.25%)-EDTA (0.02%) with Hank's Balanced Salt solution and let flask stand for a minute and remove the trypsin solution . Incubate flask at 37° C. until cells detached. Add fresh medium, disperse and dispense cells into new flasks. Subcultivation ratio: 1:6.
PREPARATION of Delipidated Serum: Fetal calf serum(100 ml) and CAB-O-Sil (2 grams) stir overnight at 4° C. and centrifuge at 16,000 rpm for 5 hrs. […]
For each reaction, 55 μl of buffer mixture was taken with 5 μl of an inhibitor solution in MeOH and 10 μl of diluted enzyme (1 to 1536 as described in the enzyme preparation, the final protein concentration of enzyme in the assay is 1.2 μg per ml.). […] 400 μl of heptane layer was then removed into a […] and mixed with 2.5 ml of scintillation fluid and the radioactivity was determined by liquid scintillation counting. […]

What is called IC50 is the concentration that gives 50% inhibition. One may read the inhibition as the change of the read-out against control, counted positive when it falls. Read a low inhibition as a weak effect. For the compound `C=C(CC[C@]12O[C@H](C(=O)O)[C@@](O)(C(=O)O)[C@](C(=O)O)(O1)[C@H](OC(=O)/C=C/C(C)CC(C)C(C)O)[C@H]2O)[C@@H](OC(C)=O)C(C)Cc1ccccc1` (stereo partly drawn) [compound of this invention, (1S,3S,4S,5S,6R,7R)-1-[(4S)-acetoxy-3-methylene-5-methyl-6-phenyl]hexyl-4,6,7-trihydroxy-6-0-(4,6-dimethyl-7-hydroxy-2-octenoyl)-2,8-dioxabicyclo [3.2.1]octane-3,4,5-tricarboxylic acid], the IC50 (3 μM 3H-farnesyl pyrophosphate, estimated, with a dose related inhibition, read-out: IC50 against squalene synthetase) is roughly 0.091 nM. Under “tested at a concentration of 1.8 nM”, this compound yielded an inhibition at 0.0018 µM of 99%.
